{"source": "patent US12521419B2", "about": "“Use of anti-aging glycopeptides to enhance pancreatic cell health, survival and improve transplant outcome” (Protokinetix Inc., priority 2014, dated 2026)", "key": {"human islet cells [1]": {"system": "human islet cells", "assay": "Protection of human islets from tacrolimus toxicity (Example 2)", "assay_type": "cell-based", "conditions": "AAGP 3 mg/mL", "experimental": "Research-grade human islet preparations are cultured for 48 hours in the following groups: • 1) No tacrolimus (Tac−) treated beta islet cells; • 2) Tracrolimus (Tac+) treated beta islet cells; and • 3) Tacrolimus (Tac+) treated+AAGP™ supplementation beta islet cells.\nAfter 48 h, tacrolimus ([…]) was added to group 2 and 3.\n(§1) Islets are cultured in humidified atmosphere of 95% air and 5% CO2 at 37° C., at a density of 200 IE/mL using standard tissue culture flask. AAGP™ concentration is 3 mg/mL. Several tests are conducted on D1 post-islet isolation, including: Islet recovery, membrane integrity viability stain (Syto EB) as well as Glucose-stimulated Insulin Release."}, "human islets [2]": {"system": "human islets", "assay": "Glucose-stimulated insulin secretion (GSIS) perifusion assay", "assay_type": "cell-based", "conditions": "AAGP 3 mg/mL, 24 hr culture", "experimental": "Islet secretory function is assessed by monitoring in vitro insulin secretory profile during continuous glucose stimulation, as described by Cabrera et al Cell transplantation 2008;16(10):1039-1048. This in vitro perifusion assay is a modality of continuous Glucose-Stimulated Insulin Secretion (GSIS) test to stress islets in alternating normoglycemic and hyperglycemic environment to model physiological islet response. Supernatants from the perifusion assay are collected and insulin levels are determined using a commercially available ELISA kit (Insulin ELISA kit. Mercodia Inc. Pittsburgh, PA, USA). Results are expressed as fold-change of insulin secretion compared to the low (2.8 mMol) glucose stimulation baseline, normalized for 100 IEQ."}, "human islets [3]": {"system": "human islets", "assay": "Viability by fluorescent membrane integrity assay (syto green/ethidium bromide)", "assay_type": "cell-based", "conditions": "AAGP 3 mg/mL, 24 hr culture, vs non-supplemented control", "experimental": "After 24 hr of culture, islets are assessed for recovery, viability and function. Recovery rate is calculated as the percentage of surviving islets after 24 hr culture in comparison to the initial count for each condition. Viability is assessed using a fluorescent membrane integrity assay with counter-stains syto green/ethidium bromide (Cedarlane Laboratories, Burlington, ON, and Sigma-Aldrich, ON) (Islet isolation for clinical transplantation. In: Shahidul. M, (ed). The islets of Langerhans. New York: Springer, 2010; Ranuncoli A, et al. Cell transplantation 2000; 9(3):409-414; Ricordi C. et al. Acta diabetologica latina 1990; 27(3):185-195; and Barnett M J et al. Cell transplantation 2004; 13(5):481-488)."}, "human islets [4]": {"system": "human islets", "assay": "Intra-islet calcium concentration", "assay_type": "cell-based", "conditions": "Tac−, Tac+AAGP groups", "experimental": "Various electrophysiology studies were performed on human islets to elucidate a potential mechanism of action for the AAGP™ by characterizing the CNI-related injury and its avoidance."}, "human islets [5]": {"system": "human islets", "assay": "Extracellular ROS in culture media, Acridan Lumigen PS-3 assay", "assay_type": "cell-based", "conditions": "media 24 hr after tacrolimus exposure, ± AAGP", "experimental": "Frozen samples from all groups are utilized to determine reactive oxygen species (ROS) in the culture media, using the Acridan Lumigen™ PS-3 assay (Amershan ECL Plus kit, Fisher Scientific Inc. Ottawa, ON, Canada) (18). In this assay Acridan Lumigen™ PS-3 is excited by reactive oxygen and nitrogen species (RNS) in the presence of hydrogen peroxide, producing chemiluminescense at 430 nm. Media samples are flash-frozen with liquid nitrogen and stored until the assay is performed. CMRL culture media alone is used as a control, and results are expressed as fold-change increase compared to the control media."}, "human islet cells [6]": {"system": "human islet cells", "assay": "Initial characterization of human islets cultured 24 hours (Example 1)", "assay_type": "cell-based", "conditions": "AAGP 3 mg/mL", "experimental": "Research-grade human islet preparations are cultured for 24 hours in the following groups: • 1) AAGP™ supplemented islets cells; and • 2) Controls (non-supplemented islets cells).\nas §1, with “flask. The” for “flask.”, “day 1” for “D1”, “(Syto®” for “(Syto”, “Glucose-Stimulated” for “Glucose-stimulated”"}, "mouse splenocytes": {"system": "mouse splenocytes", "assay": "Allogeneic mixed lymphocyte reaction, T cell proliferation by CFSE staining", "assay_type": "cell-based", "conditions": "vs IgG control, n=4", "excerpt": "The assay measures T cell proliferative response by levels of CFSE staining."}, "[7]": {"system": "syngeneic islet transplant", "assay": "Syngeneic full mass islet transplant with continuous tacrolimus treatment", "assay_type": "in vivo, mouse", "conditions": "AAGP in culture media 1 hour prior to transplant; tacrolimus 1 mg/kg/day by osmotic pump", "excerpt": "FIG. 11 illustrates the post-transplant graft function in immunodefficient mice receiving minimal human islet mass (˜1000 IEQ). Islets were previously treated with AAGP™ and tracrolimus accordingly. […] The dotted line indicates graft recovery nephrectomy on day 60. B. Intraperitoneal glucose tolerance test (IPGTT) to evaluate metabolic response after receiving a glucose bolus. C. Insulin content of removed grafts after 60 days of transplant as an indication of residual islet mass. Data points represent mean±SEM adjusted per gram of tissue, (Tac− n=6, Tac+ n=3 and Tac+AAGP™ n=7), *p<0.05, **p<0.01 and ***p<0.001. D and E. Post-transplant graft function in mice receiving syngeneic full mass (˜500 IEQ) islet transplant. AAGP™ was added to the culture media 1 hour prior to transplant and tacrolimus was administered via a subcutaneous osmotic pump (implanted during the same procedure) at a continuous rate of 1 mg/kg/day. D. Pooled blood glucose profiles of animal over 40 days with clear dysfunction for Tac+ islets during the presence of Tac. Vertical dotted line indicates tacrolimus treatment cessation and marks a gradual recovery of Tac+ grafts. Horizontal continuous line at y=11 indicates the normoglycemia limit. Graft recovery nephrectomy was again performed on day 30. E. Mean time-to-euglycemia after transplant showing Tac+AAGP™ mice reversing diabetes earlier (p<0.001, log-rank, Mantel-cox test). […] These differences were not observed in the Tac+AAGP™ group.\nTo further support these findings a transplant experiment was performed in a syngeneic diabetic mouse transplant model with continuous treatment with tacrolimus to resemble clinical practice.\nTo make our experiments more clinically relevant, a new in vivo syngeneic mouse transplant model was performed, with tacrolimus as a continuous treatment by means of a subcutaneous osmotic pump. It was observed that the functional impairment of transplanted islets occurred immediately after starting administration of the CNI and lasted during the entire treatment period (7 days)."}, "human islets [8]": {"system": "human islets", "assay": "Kidney subcapsular minimal mass islet transplant in Rag1 mice (Example 3)", "assay_type": "in vivo, immunodeficient mice (Rag1)", "conditions": "~1000 IEQ, islets cultured 24 h with AAGP 3 mg/mL, n=4 & 5", "experimental": "Two research-grade human islet preparations are cultured for 24 hours in the following groups: • 1) AAGP™+ supplemented islets cells; and • 2) Control (non-supplemented islets)\nIslets are cultured in humidified atmosphere of 95% air and 5% CO2 at 37° C., at a density of 200 IE/mL using standard tissue culture flask. AAGP™ concentration is 3 mg/mL. After 24 h, kidney subcapsular islet transplant is performed on immunodeficient mice (Rag1) with minimal islet mass (˜1000 IEQ) to assess transplant efficacy (n=4 & 5, control and AAGP™ respectively)."}, "[9]": {"assay": "Solubility and stability of AAGP in media", "assay_type": "physicochemical"}}, "data": [{"smiles": "C[C@H](NC(=O)[C@H](C)NC(=O)[C@@H](N)CCCCNC(=O)C(F)(F)C1(O)O[C@H](CO)[C@H](O)[C@H](O)[C@H]1O)C(=O)O", "note": "(stereo partly shown) [AAGP™]", "values": [{"measurement": "protection of islets exposed to tacrolimus in vitro", "setting": "human islet cells [1]", "result": "protects islet exposed to tacrolimus in vitro"}, {"measurement": "insulin secretion during the second secretory phase (perifusion curves)", "setting": "human islets [2]; vs control", "result": "significant increase in insulin secretion"}, {"measurement": "GSIS perifusion area under the curve (insulin release)", "setting": "human islets [2]; control 75.5±0.5", "result": "149.5±0.5"}, {"measurement": "cellular viability per membrane integrity assay", "setting": "human islets [3]", "result": "no differences in cellular viability"}, {"measurement": "calcium concentration in islets", "setting": "human islets [4]", "result": "neither tacrolimus nor AAGP™ affected the calcium concentration"}, {"measurement": "extracellular ROS (fold-increase vs control media)", "setting": "human islets [5]", "result": "ameliorated"}, {"measurement": "toxicity on human islet cells", "setting": "human islet cells [6]", "result": "no toxicity"}, {"measurement": "islet survival in culture", "setting": "human islet cells [6]; 24 hours", "result": "seems to enhance islet survival in culture"}, {"measurement": "T cell proliferation (CD8+ and CD4+)", "setting": "mouse splenocytes", "result": "no significant decrease in proliferation of T cells"}, {"measurement": "graft function / period to achieve euglycemia", "setting": "[7]", "result": "period to achieve euglycemia was similar to the control group"}, {"measurement": "transplant outcome with minimal islet mass", "setting": "human islets [8]", "result": "inconclusive"}, {"measurement": "solubility", "setting": "[9]; all media", "result": "highly soluble in all media"}, {"measurement": "stability", "setting": "[9]; compared to natural AFP", "result": "more stable"}]}]}
